Source: US20150051257A1, “SULPHONAMIDE DERIVATIVES OF BENZYLAMINE FOR THE TREATMENT OF CNS DISEASES” (ADAMED SP. Z O.O, priority 2012, published 2015)

Tests used:
[1] = tested on: σ (non-selective); test: Radioligand binding assay, σ receptors; settings: test compound 1×10^−6M; [3H]DTG; rat cerebral cortex
Procedure: (§1) Specific ligand binding to the receptors is defined as the difference between the total binding and the non-specific binding determined in the presence of an excess of unlabelled ligand.
(§2) The results are expressed as a percent of control specific binding ((measured specific binding/control specific binding)×100%) obtained in the presence of the test compounds. The compounds were tested for their affinity to receptors at a concentration of 1×10^−6M.
(§3) Conditions and methodology of in vitro tests are given by reference to the literature in Table 1, and the results of tests for representative compounds are given in Table 2 (dopaminergic receptors D2 and D3), in Table 3 (dopaminergic receptors D1 and D4.4), in Table 4 (serotoninergic receptors 5-HT1A, 5-HT2A, 5-HT6, 5-HT7), in table 5 (serotoninergic receptors 5-HT2C), in Table 6 (sigma o receptors), in Table 7 (adrenergic receptors α1, histaminergic receptors H1 and muscarinic receptors M3), in Table 8 (adrenergic receptors α2C) and in Table 9 (serotonin transporter receptors SERT).

[2] = tested on: α1 (non-selective); test: Radioligand binding assay, adrenergic α1 receptors; settings: test compound 1×10^−6M; [3H]prazosin; rat cerebral cortex
Procedure: as §1, §2, §3

[3] = target: T1, hERG potassium channels (KCNH2 gene, expressed in CHO cells) (Homo sapiens, UniProt Q12809); test: Ability to block hERG potassium channel (electrophysiology, IonWorks Quattro); type: cell-based; settings: cloned hERG in CHO cells; test pulse +40 mV; concentration not given
T1 construct: expressed in transfected cells; host or cells: CHO cells
Procedure: Ability to Block hERG Potassium Channel Ability to block hERG potassium channels was determined using the electrophysiological method and cloned hERG potassium channels (KCNH2 gene, expressed in CHO cells) as biological material. The effects were evaluated using IonWorks™ Quattro system (MDS-AT).
hERG current was elicited using a pulse pattern with fixed amplitudes (conditioning pre-pulse: −80 mV for 25 ms; test pulse: +40 mV for 80 ms) from a holding potential of 0 mV. hERG current was measured as a difference between the peak current at 1 ms after the test step to +40 mV and the steady-state current at the end of the step to +40 mV.
Data acquisition and analyses were performed using the lonWorks Quattro™ system operation software (version 2.0.2; Molecular Devices Corporation, Union City, Calif.). Data were corrected for leak current.
The hERG block was calculated as: % Block=(1−I TA/IControl)×100%, where IControl and ITA were the currents elicited by the test pulse in control and in the presence of a test compound, respectively.

T1 sequence (Q12809 whole entry): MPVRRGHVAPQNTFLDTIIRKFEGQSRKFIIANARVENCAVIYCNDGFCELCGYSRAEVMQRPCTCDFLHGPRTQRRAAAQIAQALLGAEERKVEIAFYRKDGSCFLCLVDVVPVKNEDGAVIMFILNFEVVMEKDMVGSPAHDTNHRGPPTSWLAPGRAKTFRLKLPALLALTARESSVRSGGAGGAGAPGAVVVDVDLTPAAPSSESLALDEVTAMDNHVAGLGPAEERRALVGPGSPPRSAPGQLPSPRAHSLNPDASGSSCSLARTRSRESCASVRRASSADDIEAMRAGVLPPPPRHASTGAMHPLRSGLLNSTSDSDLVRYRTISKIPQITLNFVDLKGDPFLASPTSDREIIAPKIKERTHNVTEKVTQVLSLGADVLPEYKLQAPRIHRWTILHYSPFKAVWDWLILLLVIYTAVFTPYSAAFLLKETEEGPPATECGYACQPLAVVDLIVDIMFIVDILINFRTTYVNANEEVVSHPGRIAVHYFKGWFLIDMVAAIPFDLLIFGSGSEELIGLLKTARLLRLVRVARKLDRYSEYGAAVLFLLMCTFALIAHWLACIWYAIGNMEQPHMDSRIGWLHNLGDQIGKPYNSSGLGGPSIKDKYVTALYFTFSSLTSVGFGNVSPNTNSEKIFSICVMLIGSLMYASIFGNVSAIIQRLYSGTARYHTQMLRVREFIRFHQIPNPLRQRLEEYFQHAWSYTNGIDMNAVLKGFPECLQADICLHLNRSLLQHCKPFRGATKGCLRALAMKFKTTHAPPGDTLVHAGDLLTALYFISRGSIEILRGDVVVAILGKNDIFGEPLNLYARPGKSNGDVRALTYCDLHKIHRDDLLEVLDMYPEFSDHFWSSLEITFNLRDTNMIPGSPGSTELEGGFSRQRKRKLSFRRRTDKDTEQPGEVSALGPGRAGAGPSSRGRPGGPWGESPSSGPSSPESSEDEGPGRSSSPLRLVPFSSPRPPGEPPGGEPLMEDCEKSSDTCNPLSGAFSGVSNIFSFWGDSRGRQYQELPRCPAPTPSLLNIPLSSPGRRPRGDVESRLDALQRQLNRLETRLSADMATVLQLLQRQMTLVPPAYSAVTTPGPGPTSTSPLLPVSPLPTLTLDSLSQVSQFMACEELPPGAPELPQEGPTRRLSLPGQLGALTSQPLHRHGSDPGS

Row | SMILES | σ [%] [1] | α1 [%] [2] | hERG [%] (% Block) [3]
1 | COc1ccccc1OCCNCc1cccc(NS(=O)(=O)c2ccc3ccccc3c2)c1 [Compound 10, N-[3-[[2-(2-methoxyphenoxyl)ethylamino]methyl]phenyl]naphthalene-2-sulphonamide] | 74% | 20% | –
2 | O=S(=O)(Nc1cccc(CNCCc2ccccc2)c1)c1ccc2ccccc2c1 [Compound 1, N-[3-[(phenylethylamino)methyl]phenyl]naphthalene-2-sulphonamide] | 83% | 26% | –
3 | O=S(=O)(Nc1cccc(CNCCOc2cccc3c2OCCO3)c1)c1ccc2ccccc2c1 [Compound 36, N-[3-[[2-(2,3-dihydro-1,4-benzodioxin-5-yloxy)ethylamino]methyl]phenyl]naphthalene-2-sulphonamide] | – | – | 1%
4 | COc1ccccc1CCNCc1cccc(NS(=O)(=O)c2ccc3ccccc3c2)c1 [Compound 9, N-[3-[[2-(2-methoxyphenyl)ethylamino]methyl]phenyl]naphthalene-2-sulphonamide] | – | 56% | –
5 | O=S(=O)(Nc1cccc(CNCCOc2cccc3[nH]ccc23)c1)c1ccc2ccccc2c1 [Compound 52, N-[3-[[2-(1H-indol-4-yloxy)ethylamino]methyl]phenyl]naphthalene-2-sulphonamide] | 79% | 41% | 2%
6 | O=S(=O)(Nc1cccc(CNCCOc2cccc3c2OCCO3)c1)c1ccc(I)cc1 [Compound 22, N-[3-[[2-(2,3-dihydro-1,4-benzodioxin-5-yloxy)ethylamino]methyl]phenyl]-4-iodobenzenesulphonamide] | 95% | 84% | –
7 | O=S(=O)(Nc1cccc(CNCCOc2cccc3c2OCCO3)c1)c1cccc2ccccc12 [Compound 35, N-[3-[[2-(2,3-dihydro-1,4-benzodioxin-5-yloxy)ethylamino]methyl]phenyl]naphthalene-1-sulphonamide] | – | – | −1%
8 | O=S(=O)(Nc1cccc(CNCCOc2cccc3[nH]ccc23)c1)c1cccc2ccccc12 [Compound 51, N-[3-[[2-(1H-indol-4-yloxy)ethylamino]methyl]phenyl]naphthalene-1-sulphonamide] | 76% | 34% | 1%
9 | O=S(=O)(Nc1cccc(CNCCc2cccc(O)c2)c1)c1ccc2ccccc2c1 [Compound 17, N-[3-[[2-(3-hydroxyphenyl)ethylamino]methyl]phenyl]naphthalene-2-sulphonamide] | 71% | 31% | –
10 | O=S(=O)(Nc1cccc(CNCCc2cccc(Cl)c2)c1)c1ccc2ccccc2c1 [Compound 6, N-[3-[[2-(3-chlorophenyl)ethylamino]methyl]phenyl]naphthalene-2-sulphonamide] | 73% | 53% | –
11 | Cc1cccc(S(=O)(=O)Nc2cccc(CNCCOc3cccc4[nH]ccc34)c2)c1 [Compound 49, N-[3-[[2-(1H-indol-4-yloxy)ethylamino]methyl]phenyl]-3-methyl-benzenesulphonamide] | 79% | 59% | 2%
12 | CN(CCCc1noc2cc(F)ccc12)Cc1cccc(NS(=O)(=O)c2ccc(I)cc2)c1 [Compound 68, N-[3-[[3-(6-fluoro-1,2-benzoxazol-3-yl)propylmethylamino]methyl]phenyl]-4-iodobenzenesulphonamide] | 73% | 84% | –
13 | COc1ccc(CCNCc2cccc(NS(=O)(=O)c3ccc4ccccc4c3)c2)cc1 [Compound 14, N-[3-[[2-(4-methoxyphenyl)ethylamino]methyl]phenyl]naphthalene-2-sulphonamide] | 54% | 13% | –
14 | Cc1cccc(CCNCc2cccc(NS(=O)(=O)c3ccc4ccccc4c3)c2)c1 [Compound 8, N-[3-[[2-(3-methylphenyl)ethylamino]methyl]phenyl]naphthalene-2-sulphonamide] | 85% | 17% | –
15 | O=S(=O)(Nc1cccc(CNCCOc2cccc3c2OCCO3)c1)c1csc2ccccc12 [Compound 43, N-[3-[[2-(2,3-dihydro-1,4-benzodioxin-5-yloxy)ethylamino]methyl]phenyl]benzothiophene-3-sulphonamide] | – | – | 10%
16 | COc1cccc(CCNCc2cccc(NS(=O)(=O)c3ccc4ccccc4c3)c2)c1 [Compound 11, N-[3-[[2-(3-methoxyphenyl)ethylamino]methyl]phenyl]naphthalene-2-sulphonamide] | 76% | 18% | −4%
